Experimental findings from patent US20260070945A1, “MACROCYCLIC IMMUNOMODULATORS” (Bristol-Myers Squibb Company, priority 2022, published 2026) are described below.

Structures are written as SMILES. pIC50: −log10 of the molar value. *1 amine or outer side, *2 acyl side, *3 side chain or, on linkers, in order; H or OH if unused. Where a SMILES comes first, the peptide text is derived from it. Bridges are numbered along the chain shown (N, C = ends). [ ]: non-standard residue; d: D form. The star is where a group is joined. ξ: configuration not given here. Phe(3-CF3) = N[C@@H](Cc1cccc(C(F)(F)F)c1)C(=O)O; Phe(4-CF3) = N[C@@H](Cc1ccc(C(F)(F)F)cc1)C(=O)O; Ala(morpholin-4-yl) = N[C@@H](CN1CCOCC1)C(=O)O; Phe(4-COOH) = N[C@@H](Cc1ccc(C(=O)O)cc1)C(=O)O; Bip = N[C@@H](Cc1ccc(-c2ccccc2)cc1)C(=O)O; Phe(3-F) = N[C@@H](Cc1cccc(F)c1)C(=O)O; Phe(3-Me) = Cc1cccc(C[C@H](N)C(=O)O)c1; γGlu = O=C(O)[C@H](CCC(=O)[*:2])N[*:1]; NH(CH2)12COOH = O=C(O)CCCCCCCCCCCCN*; Phe(2-Me) = Cc1ccccc1C[C@H](N)C(=O)O; Val(3-OH) = CC(C)(O)[C@H](N)C(=O)O; hArg = N=C(N)NCCCC[C@H](N)C(=O)O; 4Pal = N[C@@H](Cc1ccncc1)C(=O)O; Cha = N[C@@H](CC1CCCCC1)C(=O)O; Cit = NC(=O)NCCC[C@H](N)C(=O)O; Ile(3ξ) = CCC(C)[C@H](N)C(=O)O; Thr(3ξ) = CC(O)[C@H](N)C(=O)O; hSer = N[C@@H](CCO)C(=O)O; Carboxymethyl = O=C(O)C*; NMeA = CN[C@@H](C)C(=O)O; Orn = NCCC[C@H](N)C(=O)O; Aun = NCCCCCCCCCCC(=O)O; Dab = NCC[C@H](N)C(=O)O; Nva = CCC[C@H](N)C(=O)O; Dap = NC[C@H](N)C(=O)O; AEEA = NCCOCCOCC(=O)O

T1 sequence (Q15116 25-288): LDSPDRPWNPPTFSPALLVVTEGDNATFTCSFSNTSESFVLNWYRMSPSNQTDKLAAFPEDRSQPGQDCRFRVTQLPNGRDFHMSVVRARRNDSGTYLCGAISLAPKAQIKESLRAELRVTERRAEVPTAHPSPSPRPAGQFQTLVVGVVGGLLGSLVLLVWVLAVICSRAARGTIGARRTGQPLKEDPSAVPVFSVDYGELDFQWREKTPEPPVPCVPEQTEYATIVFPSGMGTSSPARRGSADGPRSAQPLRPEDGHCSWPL

The first assay has as its target T1, PD-1/PD-L1 interaction (PE-labeled human PD-L1-Ig binding to Jurkat cell line over-expressing human PD-1) (Homo sapiens, UniProt Q15116).
T1 construct: expressed in transfected cells; host or cells: Jurkat
Briefly: Jurkat-PD-1 Cell Binding High-Content Screening Assay (CBA). To be noted: Jurkat-hPD-1 cells, PE-labeled PD-L1-Ig 20 nM final; read-out: Jurkat HPD1 PDL1 IC50. Put shortly: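 In this imaging assay, cells in 10% FCS medium see compound for 2 h at 37 °C and then labeled ligand at 20 nM final for 1 h. Paraformaldehyde fixation, Hoechst 33342 staining and dPBS washes precede image capture.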
The pIC50 is the negative decadic logarithm of the IC50, by convention in mol/L. With `CC(C)C[C@H]1NC(=O)[C@H](C)N(C)C(=O)[C@H](Cc2ccc(OCC(=O)O)cc2)NC(=O)[C@H](Cc2ccc(-c3ccccc3)cc2)NC(=O)[C@H](Cc2ccc(OCC(=O)O)cc2)NC(=O)[C@H](Cc2c[nH]c3ccccc23)NC(=O)[C@H](CC(=O)O)NC(=O)[C@H](Cc2ccc(OCC(=O)O)cc2)NC(=O)[C@H]([C@@H](C)O)NC(=O)CSC[C@@H](C(=O)N[C@@H](CCCN)C(=O)NCCOCCOCC(=O)NCCCCCCCCCCC(=O)O)NC(=O)[C@H](CO)NC(=O)[C@H](C(C)C)NC(=O)[C@H](CC2CCCCC2)NC(=O)[C@H](CCN)NC1=O` [Example 1395] ({CH2CO}-TY(Carboxymethyl)DWY(Carboxymethyl)[Bip]Y(Carboxymethyl)[NMeA][dL][Dab][Cha]VSC[Orn][AEEA][Aun]-OH; thioether N-14), the negative-log IC50 (pIC50) is 7.25.

Regarding `CC(=O)NCCCC[C@@H]1NC(=O)[C@H](Cc2ccc(-c3ccccc3)cc2)NC(=O)[C@H](C(C)C)NC(=O)[C@H](Cc2c[nH]c3ccccc23)NC(=O)[C@H](CC(=O)O)NC(=O)[C@H](Cc2ccc(OCC(=O)O)cc2)NC(=O)[C@H](Cc2ccc(OCC(=O)O)cc2)NC(=O)CSC[C@@H](C(=O)NCCOCCOCC(=O)NCCCCCCCCCCC(=O)O)NC(=O)[C@H](CCO)NC(=O)[C@H](C(C)C)NC(=O)[C@H](CC2CCCCC2)NC(=O)[C@H](CCN)NC(=O)[C@@H](CC(C)C)NC(=O)[C@H](C)N(C)C1=O` [Example 2316] ({CH2CO}-Y(Carboxymethyl)Y(Carboxymethyl)DWV[Bip]K(Ac)[NMeA][dL][Dab][Cha]V[hSer]C[AEEA][Aun]-OH; thioether N-14), the negative-log IC50 (pIC50) was 7.95.

Turning to `CC(=O)NCCCC[C@@H]1NC(=O)[C@H](Cc2ccc(-c3ccccc3)cc2)NC(=O)[C@H](CC(C)C)NC(=O)[C@H](Cc2cccc(C)c2)NC(=O)[C@H](CC(=O)O)NC(=O)[C@H](Cc2ccc(C(=O)O)cc2)NC(=O)[C@H](Cc2ccc(OCC(=O)O)cc2)NC(=O)CSC[C@@H](C(=O)NCCOCCOCC(=O)NCCCCCCCCCCC(=O)O)NC(=O)[C@H](C(C)O)NC(=O)[C@H](C(C)C)NC(=O)[C@H](CC2CCCCC2)NC(=O)[C@H](CCN)NC(=O)[C@@H](CC(C)C)NC(=O)[C@H](C)N(C)C1=O` (stereo partly drawn) [Example 2282] ({CH2CO}-Y(Carboxymethyl)[Phe(4-COOH)]D[Phe(3-Me)]L[Bip]K(Ac)[NMeA][dL][Dab][Cha]V[Thr(3ξ)]C[AEEA][Aun]-OH; thioether N-14), the pIC50 was 7.45.

For `CCC(C)[C@@H]1NC(=O)[C@H](Cc2ccc(-c3ccccc3)cc2)NC(=O)[C@H](CC(C)C)NC(=O)[C@H](Cc2c[nH]c3ccccc23)NC(=O)[C@H](CC(=O)O)NC(=O)[C@H](Cc2ccc(OCC(=O)O)cc2)NC(=O)[C@H](CCCCNC(=N)N)NC(=O)CSC[C@@H](C(=O)NCCOCCOCC(=O)N[C@@H](CCC(=O)NCCCCCCCCCCC(=O)O)C(=O)O)NC(=O)[C@H](CO)NC(=O)[C@H](C(C)C)NC(=O)[C@H](CC(C)C)NC(=O)[C@H](CCN)NC(=O)[C@@H](CC(C)C)NC(=O)[C@H](C)N(C)C1=O` (stereo partly drawn) [Example 2044] ({CH2CO}-[hArg]Y(Carboxymethyl)DWL[Bip][Ile(3ξ)][NMeA][dL][Dab]LVSC[AEEA][γGlu][Aun]-OH; thioether N-14), the pIC50 was 7.17.

On to `COC[C@@H]1NC(=O)CSC[C@@H](C(=O)N[C@@H](CCN)C(=O)NCCOCCOCC(=O)N[C@@H](CCC(=O)NCCOCCOCC(=O)NCCCCCCCCCCCCC(=O)O)C(=O)O)NC(=O)[C@H](CCCCNC(C)=O)NC(=O)[C@H](C(C)(C)O)NC(=O)[C@H](CC2CCCCC2)NC(=O)[C@H](CCN)NC(=O)[C@@H](CC(C)C)NC(=O)[C@H](C)N(C)C(=O)[C@H](CCC(N)=O)NC(=O)[C@H](Cc2ccc(-c3ccccc3)cc2)NC(=O)[C@H](Cc2ccc(C(=O)O)cc2)NC(=O)[C@H](Cc2cccc(C(F)(F)F)c2)NC(=O)[C@H](CC(=O)O)NC(=O)[C@H](Cc2ccc(OCC(=O)O)cc2)NC1=O` [Example 1165] ({CH2CO}-S(Me)Y(Carboxymethyl)D[Phe(3-CF3)][Phe(4-COOH)][Bip]Q[NMeA][dL][Dab][Cha][Val(3-OH)]K(Ac)C[Dab][AEEA][γGlu][AEEA]-{NH(CH2)12COOH}; thioether N-14), for which the pIC50 was 7.66.

With `CC(C)C[C@@H]1NC(=O)[C@H](Cc2c[nH]c3ccccc23)NC(=O)[C@H](CC(=O)O)NC(=O)[C@H](Cc2ccncc2)NC(=O)[C@H](Cc2ccc(OCC(=O)O)cc2)NC(=O)CSC[C@@H](C(=O)NCCOCCOCC(=O)N[C@@H](CN)C(=O)NCCCCCCCCCCC(=O)O)NC(=O)[C@H](CCCNC(N)=O)NC(=O)[C@H](C(C)C)NC(=O)[C@H](CC2CCCCC2)NC(=O)[C@H](CCN)NC(=O)[C@@H](CC(C)C)NC(=O)[C@H](C)N(C)C(=O)[C@H](C(C)C)NC(=O)[C@H](Cc2ccc(-c3ccccc3)cc2)NC1=O` [Example 2164] ({CH2CO}-Y(Carboxymethyl)[4Pal]DWL[Bip]V[NMeA][dL][Dab][Cha]V[Cit]C[AEEA][Dap][Aun]-OH; thioether N-14), the negative logarithm of the IC50 (pIC50) was 7.92.

As to `CC(C)C[C@@H]1NC(=O)[C@H](Cc2c[nH]c3ccccc23)NC(=O)[C@H](CC(=O)O)NC(=O)[C@H](Cc2ccc(O)cc2)NC(=O)[C@H](Cc2ccncc2)NC(=O)CSC[C@@H](C(=O)N[C@@H](CCCN)C(=O)NCCOCCOCC(=O)NCCCCCCCCCCC(=O)O)NC(=O)[C@H](CO)NC(=O)[C@H](C(C)C)NC(=O)[C@H](CC2CCCCC2)NC(=O)[C@H](CCN)NC(=O)[C@@H](CC(C)C)NC(=O)[C@H](C)N(C)C(=O)[C@H](C(C)C)NC(=O)[C@H](Cc2ccc(-c3ccccc3)cc2)NC1=O` [Example 2147] ({CH2CO}-[4Pal]YDWL[Bip]V[NMeA][dL][Dab][Cha]VSC[Orn][AEEA][Aun]-OH; thioether N-14), the negative logarithm of the IC50 (pIC50) was 7.98.

For the molecule `CC(=O)NCCCC[C@@H]1NC(=O)[C@H](C(C)(C)O)NC(=O)[C@H](CC2CCCCC2)NC(=O)[C@H](CCN)NC(=O)[C@@H](CC(C)C)NC(=O)[C@H](C)N(C)C(=O)[C@H](CCC(N)=O)NC(=O)[C@H](Cc2ccc(-c3ccccc3)cc2)NC(=O)[C@H](Cc2ccc(C(=O)O)cc2)NC(=O)[C@H](Cc2cccc(C(F)(F)F)c2)NC(=O)[C@H](CC(=O)O)NC(=O)[C@H](Cc2ccc(OCC(=O)O)cc2)NC(=O)[C@H](CN2CCOCC2)NC(=O)CSC[C@@H](C(=O)N[C@@H](CCN)C(=O)NCCCCCCCCCCCCC(=O)O)NC1=O` [Example 1153] ({CH2CO}-[Ala(morpholin-4-yl)]Y(Carboxymethyl)D[Phe(3-CF3)][Phe(4-COOH)][Bip]Q[NMeA][dL][Dab][Cha][Val(3-OH)]K(Ac)C[Dab]-{NH(CH2)12COOH}; thioether N-14), the negative logarithm of the IC50 (pIC50) was 7.89.

`CC(C)C[C@H]1NC(=O)[C@H](C)N(C)C(=O)[C@H](C(C)C)NC(=O)[C@H](Cc2ccc(-c3ccccc3)cc2)NC(=O)[C@H](C(C)C)NC(=O)[C@H](Cc2c[nH]c3ccccc23)NC(=O)[C@H](CC(=O)O)NC(=O)[C@H](Cc2ccc(C(=O)O)cc2)NC(=O)[C@H](Cc2ccc(OCC(=O)O)cc2)NC(=O)CSC[C@@H](C(=O)N[C@@H](CCN)C(=O)NCCCCCCCCCCC(=O)O)NC(=O)[C@H](CCCNC(N)=O)NC(=O)[C@H](C(C)C)NC(=O)[C@H](CC2CCCCC2)NC(=O)[C@H](CCN)NC1=O` [Example 2290] ({CH2CO}-Y(Carboxymethyl)[Phe(4-COOH)]DWV[Bip]V[NMeA][dL][Dab][Cha]V[Cit]C[Dab][Aun]-OH; thioether N-14): the negative-log IC50 (pIC50) is 7.74.

In the case of `Cc1cccc(C[C@@H]2NC(=O)[C@H](CC(=O)O)NC(=O)[C@H](Cc3ccc(C(=O)O)cc3)NC(=O)[C@H](CCN)NC(=O)CSC[C@@H](C(=O)N[C@@H](CCN)C(=O)NCCCCCCCCCCC(=O)O)NC(=O)[C@H](CO)NC(=O)[C@H](C(C)(C)O)NC(=O)[C@H](CC3CCCCC3)NC(=O)[C@H](CCN)NC(=O)[C@@H](CC(C)C)NC(=O)[C@H](C)N(C)C(=O)[C@H](Cc3ccc(OCC(=O)O)cc3)NC(=O)[C@H](Cc3ccc(-c4ccccc4)cc3)NC(=O)[C@H](Cc3ccccc3C)NC2=O)c1` [Example 1296] ({CH2CO}-[Dab][Phe(4-COOH)]D[Phe(3-Me)][Phe(2-Me)][Bip]Y(Carboxymethyl)[NMeA][dL][Dab][Cha][Val(3-OH)]SC[Dab][Aun]-OH; thioether N-14), the pIC50 was 7.31.

Staying with this assay, now noted: PE-labeled PD-L1-Ig 20 nM final, Jurkat-hPD-1 cells; read-out: Jurkat HPD1 PDL1 IC50.
In the case of `CCC(C)[C@@H]1NC(=O)[C@H](Cc2ccc(-c3ccccc3)cc2)NC(=O)[C@H](Cc2ccc(C(F)(F)F)cc2)NC(=O)[C@H](Cc2cccc(F)c2)NC(=O)[C@H](CC(=O)O)NC(=O)[C@H](Cc2ccc(C(=O)O)cc2)NC(=O)[C@H](Cc2cnc[nH]2)NC(=O)CSC[C@@H](C(=O)N[C@@H](CCN)C(=O)NCCCCCCCCCCC(=O)O)NC(=O)[C@H](CO)NC(=O)[C@H](C(C)(C)O)NC(=O)[C@H](CC2CCCCC2)NC(=O)[C@H](CCN)NC(=O)[C@@H](CC(C)C)NC(=O)[C@H](C)N(C)C1=O` (stereo partly drawn) [Example 2586] ({CH2CO}-H[Phe(4-COOH)]D[Phe(3-F)][Phe(4-CF3)][Bip][Ile(3ξ)][NMeA][dL][Dab][Cha][Val(3-OH)]SC[Dab][Aun]-OH; thioether N-14), the pIC50 was 7.85.

In the case of `CCC[C@@H]1NC(=O)CSC[C@@H](C(=O)N[C@@H](CCN)C(=O)NCCOCCOCC(=O)NCCCCCCCCCCC(=O)O)NC(=O)[C@H](CCC(=O)O)NC(=O)[C@H](CO)NC(=O)[C@H](CC2CCCCC2)NC(=O)[C@H](CCN)NC(=O)[C@@H](CC(C)C)NC(=O)[C@H](C)N(C)C(=O)[C@H](Cc2ccc(OCC(=O)O)cc2)NC(=O)[C@H](Cc2ccc(-c3ccccc3)cc2)NC(=O)[C@H](Cc2ccc(OCC(=O)O)cc2)NC(=O)[C@H](Cc2cccc(C)c2)NC(=O)[C@H](CC(=O)O)NC(=O)[C@H](Cc2ccc(C(=O)O)cc2)NC1=O` [Example 2561] ({CH2CO}-[Nva][Phe(4-COOH)]D[Phe(3-Me)]Y(Carboxymethyl)[Bip]Y(Carboxymethyl)[NMeA][dL][Dab][Cha]SEC[Dab][AEEA][Aun]-OH; thioether N-14), the negative logarithm of the IC50 (pIC50) was 7.62.
